In assay [1] the target is MAO-A (Homo sapiens (Human), UniProt P21397). Briefly: biochemical.
Assay [2] deals with MAO-B (Homo sapiens (Human), UniProt P27338). The assay can be described thus: biochemical.
Method: For MAO-B, the protein was kept between 1.8 and 3.6 ng/ul (Sigma M7441) and kynuramine (Sigma) at 50 uM was used as substrate.

The term kinact/KI denotes the second-order rate constant of inactivation.

Chain of MAO-A (P21397 whole entry): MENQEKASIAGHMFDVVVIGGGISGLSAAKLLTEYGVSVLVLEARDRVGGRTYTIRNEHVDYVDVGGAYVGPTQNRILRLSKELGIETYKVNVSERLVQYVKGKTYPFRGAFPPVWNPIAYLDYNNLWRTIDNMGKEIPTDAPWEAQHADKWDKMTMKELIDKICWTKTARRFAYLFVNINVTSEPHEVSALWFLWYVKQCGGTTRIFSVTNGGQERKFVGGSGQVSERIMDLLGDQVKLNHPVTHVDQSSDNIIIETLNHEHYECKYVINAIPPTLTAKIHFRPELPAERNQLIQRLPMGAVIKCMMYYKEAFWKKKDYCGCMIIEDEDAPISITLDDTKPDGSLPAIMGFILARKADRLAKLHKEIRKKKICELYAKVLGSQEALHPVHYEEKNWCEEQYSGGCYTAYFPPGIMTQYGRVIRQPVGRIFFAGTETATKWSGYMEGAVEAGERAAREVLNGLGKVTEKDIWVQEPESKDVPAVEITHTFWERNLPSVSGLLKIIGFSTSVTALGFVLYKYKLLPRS
Chain of MAO-B (P27338 whole entry): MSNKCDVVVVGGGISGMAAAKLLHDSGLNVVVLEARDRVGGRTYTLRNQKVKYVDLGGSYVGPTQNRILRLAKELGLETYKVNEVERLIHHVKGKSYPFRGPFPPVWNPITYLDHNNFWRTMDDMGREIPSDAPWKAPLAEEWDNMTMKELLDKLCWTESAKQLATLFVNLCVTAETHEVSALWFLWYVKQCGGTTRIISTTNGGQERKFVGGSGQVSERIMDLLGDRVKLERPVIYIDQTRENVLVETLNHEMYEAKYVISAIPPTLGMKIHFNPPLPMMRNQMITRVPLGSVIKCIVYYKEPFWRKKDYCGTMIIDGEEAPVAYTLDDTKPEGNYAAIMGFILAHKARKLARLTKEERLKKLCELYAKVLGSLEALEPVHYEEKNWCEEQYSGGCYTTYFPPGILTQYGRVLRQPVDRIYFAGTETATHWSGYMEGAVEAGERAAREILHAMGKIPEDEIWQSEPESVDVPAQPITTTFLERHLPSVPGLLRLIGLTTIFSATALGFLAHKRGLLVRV

Regarding `C#CCN[C@@H]1CCc2ccccc21` [Rasagiline], the figures for the kinact/KI in assay [1] and in assay [2] were 62 M⁻¹ s⁻¹ and 7460 M⁻¹ s⁻¹, respectively.

Values taken from patent publication US10233178B2, “Arylcyclopropylamine based demethylase inhibitors of LSD1 and their medical use” (priority 2010, dated 2019).
